Assay results published in US8512709B2, “Modified amyloid β peptide” (The Chemo-Sero-Therapeutic Research Institue, priority 2008, dated 2013).

Tested on: Aβ peptide (1-40 amino acid sequence)
Experiment: Anti-Aβ IgG antibody titer of murine serum after immunization with Aβ peptides (ELISA on immobilized Aβ 1-40)
Type: in vivo, C57BL/6 mice
Settings: for Antibody titer Animal No. 1 / Antibody titer Animal No. 2 / Antibody titer Animal No. 3 / Antibody titer Animal No. 4: C57BL/6 mouse serum, Day 7 from final 3rd immunization; for Antibody titer Animal No. 1 / Antibody titer Animal No. 2 / Antibody titer Animal No. 3 / Antibody titer Animal No. 4 / Antibody titer Mean: 100 μg/mouse; for Antibody titer Mean: mean of 4 mice, serum Day 7 from final 3rd immunization

Row | Sequence | Antibody titer Animal No. 1 (Example 3) [ng/mL] | Antibody titer Animal No. 2 (Example 3) [ng/mL] | Antibody titer Animal No. 3 (Example 3) [ng/mL] | Antibody titer Animal No. 4 (Example 3) [ng/mL] | Antibody titer Mean (Example 3) [ng/mL] | Antibody titer Animal No. 1 (Example 4) [ng/mL] | Antibody titer Animal No. 2 (Example 4) [ng/mL] | Antibody titer Animal No. 3 (Example 4) [ng/mL] | Antibody titer Animal No. 4 (Example 4) [ng/mL] | Antibody titer Mean (Example 4) [ng/mL] | induction of an antibody to Aβ (Example 4, result in words on Table 4)
1 | DAEFRHDSKGAIIGLMVGC [1-8•28-37AACys, 1-8+28-37-amino acid Aβ peptide with addition of Cysteine] | 16 | 16 | 43 | 31 | 26.4 | – | – | – | – | – | –
2 | EFRHDSGYKGAIIGLMVGC (added cysteine) [3-10•28-37AACys, 3-10+28-37-amino acid Aβ peptide with addition of Cysteine] | – | – | – | – | – | 3203 | 1456 | 4500 | 52 | 2302.8 | observed
3 | FRHDSGYKGAIIGLMVGC (added cysteine) [4-10•28-37AACys, 4-10+28-37-amino acid Aβ peptide with addition of Cysteine] | – | – | – | – | – | 24 | 31 | 53 | 27 | 33.8 | –
